In patent US6670351B1, “Method for ameliorating muscle weakness/wasting in a patient infected with human immunodeficiency virus-type 1” (Bio-Technology General Corporation, priority 1992, dated 2003):
Like-named read-outs stand apart in the source and are kept apart here.

Experiments:
[1] = test system: patients with uterine cervical cancer; details: administered parentally; cited from earlier work
[2] = test system: HIV-associated myopathy and muscle weakness/wasting; test: Case example: HIV-seropositive patient with HIV-associated myopathy and muscle weakness/wasting; type: in vivo, human; details: for return to previous levels of function and strength: trial after oxandrolone was no longer obtainable
Text: A patient, a homosexual person, known to be HIV-seropositive since February 1989, noted difficulty opening drawers and bottles in May 1989. […] However, their muscle stretch reflexes remained normal.
They complained of an inability to ascend a flight of stairs. […] The patient's creatine kinase tested at 456 Units per liter. […] Round cell inflammatory infiltrates were also noted. In light of these developments, the zidovudine treatment was terminated.
Substantial improvement initially followed the discontinuation of zidovudine. However, because of a subsequent continued and progressive weakness rendering it difficult for the patient to ascend or descend a flight of stairs, a prednisone therapy (60 mg daily) was initiated.
Thereafter, a trial period of oral oxandrolone administration (2.5 milligrams, three times daily, in tablet form) was initiated. […] The patient's weight increased from 115 pounds to 130 pounds. The patient's muscle atrophy was alleviated as well.
After several months of the aforementioned therapy with oxandrolone, the patient was no longer able to obtain oxandrolone for use as a medication. Weakness and weight loss ensued.

chronic renal failure = details: cited from earlier work
[3] = published parameter; cited from earlier work
[4] = cited from earlier work
[5] = test system: patients with acute alcoholic hepatitis; details: cited from earlier work
acute uremic rats = details: cited from earlier work
[6] = oral 2.5 milligrams three times daily
[7] = man, oral 10 milligram dose, biphasic decline

## CCCCCCCCCC(=O)O[C@H]1CC[C@H]2[C@@H]3CCC4=CC(=O)CC[C@@H]4[C@H]3CC[C@]12C [nandrolone decanonate]
[1]
  macrophage activity and cell-mediated immunity: enhanced macrophage activity and cell-mediated immunity

## CC1(O)CC[C@H]2[C@@H]3CCC4CC(=O)OC[C@]4(C)[C@H]3CC[C@@]21C (stereo partly shown) [oxandrolone, 17-hydroxy-17-methyl-2-oxaandrostan-3-one]
[2]; [6]
  ability to use stairs within one month: able to ascend and descend stairs without problems
  muscle atrophy: alleviated
  strength by confrontation testing: nearly normal strength
[2]; oral 2.5 milligrams three times daily, liver functions closely monitored
  liver functions / side effects: undesirable side effects were not detected
[2]; oral 2.5 milligrams three times daily, tablet
  patient's well being, strength and weight within two weeks: improved sense of well being, became stronger, and gained weight
[2]; oral 2.5 milligrams three times daily, increased from 115 pounds
  patient's weight after therapy: 130 pounds
Chronic renal failure
  clinical improvement after administration: clinical improvement in appetite, cell mass, linear growth, and weight for height
[3]
  Biological T½: 9.4 hr
  Glucuronidation: Little
  Metabolism: Little
  Oral Bioavailability: 100%
  Plasma Clearance: 0.717 mL/min/kg
  Tmax: 1.1 h
  Vd: 0.578 L/kg
  protein binding: >95%
[4]; after 96 hours
  urinary excretion of the administered dose: approximately 65%
[4]; [7]
  distribution half-life: approximately 30 minutes
  elimination half-life: 9.4 h
[4]; man, oral 10 milligram dose
  absorption: rapidly and completely absorbed
  time of mean peak plasma concentration: 66 min
[4]; man
  protein binding: extensive
[4]; over the same time period (96 hours)
  fecal excretion: less than 3%
[4]; taken orally
  form of excretion: excreted mainly unchanged and unconjugated in urine
[4]; within 72 hours after ingestion
  urinary excretion of an oral dose: approximately 35%
[5]; daily doses up to 80 mg/day for four weeks and 40 mg/day for eight weeks
  drug-related nephrotoxicity: did not result in any drug-related nephrotoxicity
[5]; patients with severe alcoholic hepatitis
  lymphocyte number: significantly improved lymphocyte number
Acute uremic rats
  muscle protein synthesis: increased muscle protein synthesis

## C[C@]12C/C(=C/O)C(=O)C[C@@H]1CC[C@@H]1[C@@H]2CC[C@@]2(C)[C@H]1CC[C@]2(C)O [oxymethalone]
[2]
  return to previous levels of function and strength: did not return the patient to their previous levels of function and strength

## C[C@]12C=CC(=O)C=C1CC[C@@H]1[C@@H]2C(=O)C[C@@]2(C)[C@H]1CC[C@]2(O)C(=O)CO [prednisone]
[2]; 60 mg daily
  improvement of weakness: No significant improvement

## C[C@]12Cc3c[nH]nc3C[C@@H]1CC[C@@H]1[C@@H]2CC[C@@]2(C)[C@H]1CC[C@]2(C)O [stanazol]
[2]
  return to previous levels of function and strength: did not return the patient to their previous levels of function and strength
